Laboratory results taken from patent publication US20140275049A1, “SUBSTITUTED PYRAZOLE ANALOGS As RAR ANTAGONISTS” (Eli Lilly and Company, priority 2011, published 2014).

Tests used:
[1] = biological target: T1, Gal4 (DBD) RARγ (LBD) hybrid receptor (Homo sapiens, UniProt P13631); assay: Gal4 reporter assay to determine RAR receptor antagonist activity; format: cell-based; conditions: HEK 293 cells, antagonist mode against EC80 ATRA, 24 hours, luciferase
T1 construct: Gal4 (DBD) RARγ (LBD), or the Gal4 (DBD) RARβ (LBD) hybrid receptor; expressed in transfected cells; host or cells: HEK 293
T1 sequence (P13631 185-419 limits assumed): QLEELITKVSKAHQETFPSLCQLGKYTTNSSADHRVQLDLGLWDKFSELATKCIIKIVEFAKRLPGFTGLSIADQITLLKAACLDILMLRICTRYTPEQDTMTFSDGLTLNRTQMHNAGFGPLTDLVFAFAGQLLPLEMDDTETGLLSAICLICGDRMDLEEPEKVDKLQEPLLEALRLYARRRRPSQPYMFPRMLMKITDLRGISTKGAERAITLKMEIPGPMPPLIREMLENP
Text: For cell-based assays, human embryonic kidney HEK 293 cells are transfected with receptor and reporter gene plasmids using Fugene. The reporter plasmid containing five Gal4 binding sites and a major late promoter of adenovirus upstream of the luciferase reporter cDNA is transfected together with a plasmid constitutively expressing the Gal4 DNA binding domain (DBD) and the RARα ligand binding domain (LBD), Gal4 (DBD) RARγ (LBD), or the Gal4 (DBD) RARβ (LBD) hybrid receptor using a SV40 promoter. Cells are transfected in poly-d-lysine coated T175 cm flasks in DMEM media with 5% charcoal-stripped Fetal Bovine Serum (FBS). After an overnight incubation, transfected cells are trypsinized, plated in opaque 96 well dishes in DMEM media containing 5% charcoal-stripped FBS, incubated for 4 h, and then exposed to 0.17 nM to 10 μM of test compound in half log dilutions. To determine the antagonist activity of the test compound, EC80 concentrations of agonist for each receptor is also added to the media (15 nM all-trans retinoic acid, ATRA, for RARα and RARγ, 10 nM of ATRA for RARβ). After 24 hours of incubation with compounds, cells are lysed and luciferase activity is determined. Data are fitted to a four parameter-fit logistics to determine IC50 values. The maximum % inhibition is determined versus the cellular response to 0.25% DMSO in the absence of ATRA.

[2] = tested on: MIA model of pain; assay: Monosodium iodoacetate (MIA) model of pain; format: in vivo, rat; conditions: rats, dose of 0.1 mg/kg, dosed once on day 9 post MIA, measured 2 h post dosing
Text: The injection of monoiodoacetic acid (MIA) into the knee joint of rats produces an acute inflammatory insult, which then develops into chronic degeneration of the joint tissues in the injected joint. The pain resulting from the joint injury can be measured via differential weight bearing of the hind legs using an incapacitance tester. […] Efficacy is routinely measured by the ability of a compound to partially normalize weight distribution. The maximal efficacy that can be achieved in the standard MIA is dependent on the mechanism being studied; however, for many mechanisms the maximal efficacy achieved results in a 25%-50% reduction in the weight bearing differential.
Use Male Lewis rats approximately 150-170 g and between 6-8 weeks of age. Let the animals acclimate to the environment for at least 72 h. […]
Incapacitance Tester Readings—Incapacitance Testers (Columbus Instruments International, Columbus, Ohio) for weight bearing measurements. […] A total of three one second readings are taken to reflect the amount of pressure exerted on both the left and right hind paw while the rat is positioned in the chamber. The force exerted by each hind paw is measured in grams and calculated as the left hind paw weight distribution-right hind paw weight distribution. Thus, the final paw weight distribution for each animal is an average of the three one second readings. […]

Kb [1] [nM] | Structure (SMILES) | inhibition of pain (hind paw weight bearing differential) compared to vehicle [2]
30.2 | CC(C)Sc1cc(-c2cc(-c3ccc(C(=O)O)cc3)nn2-c2ccc(C(=O)N(C)C)cc2)cc(C(C)(C)C)c1 [Example 12, 4-[5-(3-tert-Butyl-5-isopropylsulfanyl-phenyl)-1-[4-(dimethylcarbamoyl)phenyl]pyrazol-3-yl]benzoic Acid] | 
28.7 | CC(C)(C)c1cc(-c2cc(-c3ccc(C(=O)O)cc3)nn2-c2ccc(C(=O)N3CCOCC3)cc2)cc(C(C)(C)C)n1 [Example 8, 4-[5-(2,6-Di-tert-butyl-4-pyridyl)-1-[4-(morpholine-4-carbonyl)phenyl]pyrazol-3-yl]benzoic acid] | 
23 ± 5.36 | CN1CCN(C(=O)c2ccc(-n3nc(-c4ccc(C(=O)O)cc4)cc3-c3cc(C(C)(C)C)cc(C(C)(C)C)c3)cc2)CC1 [Example 1, 4-[5-(3,5-Di-tert-butylphenyl)-1-[4-(4-methylpiperazine-1-carbonyl)phenyl]pyrazol-3-yl]benzoic Acid] | significantly inhibits pain
34.6 | CC(C)(C)c1cc(-c2cc(-c3ccc(C(=O)O)cc3)nn2-c2ccc(S(C)(=O)=O)cc2)cc(C(C)(C)C)c1 [Example 19, 4-[5-(3,5-Di-tert-butylphenyl)-1-(4-methylsulfonylphenyl)pyrazol-3-yl]benzoic Acid] | 
